Experimental data: patent publication US7718781B2, “Hydroxypyridonate and hydroxypyrimidinone chelating agents” (The Regents of the University of California, priority 2001, dated 2010)
Values belong to the molecule of their own block, whether it stands above or below them.

How the values were obtained:
[1] = Ligand protonation constants (potentiometric titration); type: physicochemical
Experimental: The protonation constants for chelates of the invention are readily determined by potentiometric titrations. These constants are defined by eq 2:
As previously reported, (Turowski et al., Inorg. Chem., 27:474 (1988)) potentiometric titrations were performed using an automated apparatus consisting of a Accumet pH meter (models 925, 825MP or 15), a pH electrode (Orion Ross semi-micro combination, Cole Parmer semi-micro combination or Corning high performance combination electrodes), an autoburet (Metrohm 665 Dosimat or 702 SM Titrino) fitted with a 5 mL piston exchange unit and a jacketed Ar swept titration cell maintained at 25.0° C. by a Lauda K-2/R or Neslab RTE-111 constant temperature circulating bath. The electronic systems were integrated for automated collection with an IBM PC clone.
In this study, ligand and metal complex solutions were titrated from low to high pH and back again if possible. Titrations for the Zn/HOPY systems were not reversible, presumably due to the formation of mixed ML hydroxide complexes. […] Formation constants calculated from the potentiometric titration data were determined with the aid of a FORTRAN non-linear least-squares refinement program (BETA 90). […] Although this is a low concentration for potentiometric titrations, the buffer regions corresponding to the protonation steps are around neutral pH, and so could still be determined.

[2] = cited from earlier work
[3] = system: rat hepatocytes; details: cited from earlier work
[4] = free complex in water, in vitro; cited from earlier work
[5] = literature; cited from earlier work
[6] = system: mice; details: cited from earlier work
[7] = Gd(III) formation constants / pGd (spectrophotometric titration); type: physicochemical
Experimental: The term, “pGd,” as used herein is −log10[Gd^III]free at pH=7.4, and pre-equilibrium concentrations of [L]=10 μM, [Gd^III]=1 μM.
The Bjerrum method can be used for metal complex stability measurements (pH titrations of ligand and metal+ligand). Competition titrations with DTPA can be performed to determine the stability of very stable complexes where direct pH titration methods are inappropriate. Spectrophotometric techniques can be used to monitor metal-ligand complexation reactions, which give rise to changes in the Vis/UV spectra relative to the parent metal and ligand species. With digitally-recording automated spectrophotometeric titrators, factor analysis of the Vis/UV spectra readily determined the species in solution, their individual spectra and the equilibrium constants which interrelate them.
Data for the spectrophotometric determination of formation constants for the compounds of the invention (e.g., Tren-Me2-5,4-HOPY) with gadolinium are generally collected over a pH range of 2-8.
The formation constants are defined by eq 3:
The spectrophotometric data is refined using a model. […]
The pGd values are defined by eq 4: pGd=−log[Gd]free at pH 7.4 for [Gd]=1 μM, [L]=10 μM (4) A pM value can be calculated for many conditions, but it is generally preferable to calculate it for conditions relevant to biological considerations. […]

[8] = Water proton relaxivity (longitudinal relaxation rate, 20 MHz); type: physicochemical; details: 37° C.
Experimental: The efficacy of a paramagnetic complex as a possible MRI contrast agent depends on its ability to catalyze the nuclear magnetic relaxation rate of solvent protons (Lauffer, R. B., Chem. Rev., 87, 901 (1987); Tweedle, M. F.; Kumar, K. In Magnetic Resonance Imaging (MRI) Contrast Agents; Clarke, M. I., Sadler, P. J., Eds.; Springer: Berlin, Germany, Vol. 2, p. 1 (1999); Koenig et al., Prog. NMR Spectrosc., 22:487 (1990)). This property, which is measured in terms in relaxivity, r1p, is defined as the enhancement of the water proton longitudinal relaxation rate induced by a 1 mML^−1 solution of the paramagnetic compound at a given temperature and magnetic field strength (Aime et al., Chem. Soc. Rev., 27:19 (1998)).
In an exemplary assay, the longitudinal water proton relaxation rate at 20 MHz are measured (typically with a NMR spectrometer operating at 0.5 T) with a reproducibility of the T1 data to ±0.5%. Equipment for the control of temperature (with an accuracy of ±0.1° C.) during these measurements are employed.
Water proton relaxation measurements were carried out at 20 MHz with a Stelar Spinmaster Spectrometer (Mede, Pv, Italy) on 0.5-2 mM solutions of the Gd(III) complex. Spin-lattice relaxation times T1 were measured by the standard inversion recovery method with typical 90° pulse width of […], 16 experiments of 4 scans. The reproducibility of the data is ±1%. The temperature was controlled by a Stelar VTC-91 air-flow heater equipped with copper-constantan thermocouple (uncertainty ±0.1° C). The 1/T1 nuclear magnetic relaxation dispersion (NMRD) profiles of water protons were measured from 0.00024 to 1.2 T (corresponding to the range 0.01-50 MHz of proton Larmor frequencies) at 15, 25 and 39° C. using 1.5 mM solutions of the complex on the field-cycling Koenig-Brown relaxometer of the University of Torino (Italy). The temperature was controlled by circulating freon from an external bath and measured by a thermometer inserted into the freon close to the sample. The reproducibilities of the measured T1 values were estimated to be ±2%. […]

[9] = target: human serum albumin (HSA) (Homo sapiens, UniProt P02768); details: cited from earlier work
[10] = Experimental determination of water solubility (UV-Vis of saturated solution); type: physicochemical
Experimental: To attain neutral pH, a 0.01 M solution of buffer (HEPES, pKa 7.55) in 0.1 M KCl was made in its acidic form and neutralized to pH 7 with KOH. A dilute solution (of the metal complex) of known concentration was prepared and the UV-Vis spectrum acquired. The extinction coefficient (ε) at the maximum absorbance (at wavelength typically 320-360 nm) was then calculated using Beer-Lambert's law. A saturated solution of the metal complex was then prepared and the UV-Vis spectrum acquired and the maximum absorbance (at wavelength typically 320-360 nm) recorded. In cases where the saturated solution produced extremely high absorbances, the saturated solution was diluted and then the spectrum recorded. Using the known ε, the concentration of the saturated solution was then determined. […] The spectra of the complexes at pH 7 are consistent with the known ML spectra observed from spectrophotometric solution thermodynamics studies of the metal-ligand complexation reactions and indicate the absence of free ligand (note: M=metal, L=ligand).
Typically, preliminary investigation of the minimum solubility of the complexes involves dissolving a known quantity of the complex in a precise volume of solvent. The visible disappearance of particulate matter, over time or instantaneous in some cases, is indicative of complete dissolution of the complex.

[11] = literature reports; cited from earlier work

Chain of human serum albumin (HSA) (P02768 25-609): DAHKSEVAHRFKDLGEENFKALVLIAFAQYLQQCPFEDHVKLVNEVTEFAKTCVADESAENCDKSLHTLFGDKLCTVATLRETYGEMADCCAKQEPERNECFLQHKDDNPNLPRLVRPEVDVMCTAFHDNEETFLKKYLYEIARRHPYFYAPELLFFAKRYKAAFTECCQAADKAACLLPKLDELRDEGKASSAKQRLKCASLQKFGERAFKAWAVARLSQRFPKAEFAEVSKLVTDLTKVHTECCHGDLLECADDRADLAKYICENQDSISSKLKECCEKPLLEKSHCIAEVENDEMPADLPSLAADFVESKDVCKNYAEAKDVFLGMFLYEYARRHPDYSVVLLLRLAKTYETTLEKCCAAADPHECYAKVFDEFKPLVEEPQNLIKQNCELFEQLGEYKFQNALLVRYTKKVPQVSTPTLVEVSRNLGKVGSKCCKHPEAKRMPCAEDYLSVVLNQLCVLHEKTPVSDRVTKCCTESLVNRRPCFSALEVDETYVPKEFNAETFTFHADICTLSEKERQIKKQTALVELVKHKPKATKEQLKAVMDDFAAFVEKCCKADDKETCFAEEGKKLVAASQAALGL

- pKa [1]: 6.37
SMILES: Cc1nc(C(=O)NCCN(CCNC(=O)c2nc(C)n(C)c(=O)c2O)CCNC(=O)c2nc(C)n(C)c(=O)c2O)c(O)c(=O)n1C [TREN-HOPY, Tris[(2,3-Dimethyl-5-hydroxy-6-carboxamido-4-pyrimidinone)ethyl]amine]

SMILES: O=C([O-])CN(CCN(CC(=O)[O-])CC(=O)[O-])CCN(CC(=O)[O-])C(COCc1ccccc1)C(=O)[O-].[Gd+3] (stereo not drawn) [Gd-BOPTA]
- relaxivity in rat plasma [2]: 6.9 mM⁻¹ s⁻¹
- relaxivity in rat hepatocytes [3]: 30 mM⁻¹ s⁻¹
- relaxivity in water [4]: 4.4 mM⁻¹ s⁻¹

SMILES: Cn1ccc(C(=O)NCCN(CCNC(=O)c2ccn(C)c(=O)c2O)CCNC(=O)c2ccn(C)c(=O)c2O)c(O)c1=O [TREN-1-Me-HOPO, tris[(3-hydroxy-1-methyl-2-oxo-1,2-didehydropyridine-4-carboxamido)ethyl]amine]
- number of coordinated water molecules (q) [5]: 2
- pKa [1]: 6.12
- toxicity to mice [6]: low toxicity
- pGd ([7]; pH 7.4, [Gd]=1 μM, [L]=10 μM): 20.3
- relaxivity (r1) [8]: 10.5 mM⁻¹ s⁻¹
- relaxivity relative to [Gd(DTPA)(H2O)] [8]: ~2.5 times

SMILES: O=C([O-])CN(CCN(CC(=O)[O-])C[C@H](COP(=O)([O-])OC1CCC(c2ccccc2)(c2ccccc2)CC1)N(CC(=O)[O-])CC(=O)[O-])CC(=O)[O-].[Gd+3].[H+].[H+].[H+] [MS-325]
- relaxivity of the HSA adduct [9]: 42.0 mM⁻¹ s⁻¹
- relaxivity in water [4]: 6.6 mM⁻¹ s⁻¹

SMILES: Cn1ccc(C(=O)NCCN(CCNC(=O)c2ccn(C)c(=O)c2O)CCNC(=O)c2ccn(C)c(=O)c2O)c(O)c1=O [Formula 7, tris[(3-hydroxy-1-methyl-2-oxo-1,2-didehydropyridine-4-carboxamido)ethyl]amine]
- Water Solubility (pH 7, 25° C.) [10]: 0.1 mM
- solubility in water of the Gd(III) complex [11]: about 0.1 mM
- pH range over which speciation in water is unchanged ([7]; calculated for 1 μM Gd and 10 μM ligand (FIG. 5)): 5.5-10
